# Reference: PubChem BioAssay AID212 (DTP/NCI, 2004)
# “And” between values parts separate entries of the source, which are not always exact repeats. Equal entries are not always repeated. Records with an inconclusive call do not appear.
# Test system: BDF1 mice, colon carcinoma 38 sc, T/C %
# Experiment: NCI In Vivo Anticancer Drug Screen. Data for tumor model Colon Carcinoma 38 (subcutaneous) in B6D2F1 (BDF1) mice
# Summary of the method: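 Transplantable tumor in mice; compound-treated vs vehicle-dosed controls. Measured survival or tumor size; value = T ÷ C.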
# [1] = endpoint: median tumor weight (est.), dose: 12.5 mg/kg/injection, schedule: Q07DX002 (ip), vehicle: saline with Tween-80, higher = larger tumour
# [2] = endpoint: median tumor weight (est.), dose: 25.0 mg/kg/injection, schedule: Q07DX002 (ip), vehicle: saline with Tween-80, higher = larger tumour
# [3] = endpoint: median tumor weight (est.), dose: 25.0 mg/kg/injection, schedule: Q07DX002 (ip), vehicle: saline, higher = larger tumour
# [4] = endpoint: median tumor weight (est.), dose: 50.0 mg/kg/injection, schedule: Q07DX002 (ip), vehicle: saline with Tween-80, higher = larger tumour
# [5] = endpoint: median tumor weight (est.), dose: 50.0 mg/kg/injection, schedule: Q07DX002 (ip), vehicle: saline, higher = larger tumour
# [6] = endpoint: median tumor weight (est.), dose: 200.0 mg/kg/injection, schedule: Q07DX002 (ip), vehicle: saline, higher = larger tumour
# [7] = endpoint: median tumor weight (est.), dose: 100.0 mg/kg/injection, schedule: Q07DX002 (ip), vehicle: saline, higher = larger tumour
structure (smiles),measurement,setting,value
O=NN(CCCl)C(=O)NC1[C@H](O)CCC[C@@H]1O (some centres undefined),T/C,"endpoint: median tumor weight (est.), dose: 1.25 mg/kg/injection, schedule: Q07DX002 (ip), vehicle: saline, higher = larger tumour",68 % of control
same,T/C,"endpoint: median tumor weight (est.), dose: 2.5 mg/kg/injection, schedule: Q07DX002 (ip), vehicle: saline, higher = larger tumour",53 % of control and 76 % of control
same,T/C,"endpoint: median tumor weight (est.), dose: 10.0 mg/kg/injection, schedule: Q07DX002 (ip), vehicle: saline, higher = larger tumour",9 % of control and 26 % of control
CCCCCC#CC1OC12CCCCC2 (centres undefined),T/C,"endpoint: median tumor weight (est.), dose: 6.25 mg/kg/injection, schedule: Q07DX002 (ip), vehicle: saline, higher = larger tumour",17 % of control
same,T/C,[1],88 % of control
same,T/C,[2],122 % of control
same,T/C,[3],64 % of control and 66 % of control
same,T/C,[4],91 % of control
same,T/C,[5],24 % of control
same,T/C,"endpoint: median tumor weight (est.), dose: 100.0 mg/kg/injection, schedule: Q07DX002 (ip), vehicle: saline with Tween-80, higher = larger tumour",169 % of control
same,T/C,"endpoint: median tumor weight (est.), dose: 200.0 mg/kg/injection, schedule: Q07DX002 (ip), vehicle: saline with Tween-80, higher = larger tumour",103 % of control
same,T/C,[6],38 % of control and 41 % of control
CNC(=O)OCc1c(COC(=O)NC)c(-c2ccc(Cl)c(Cl)c2)n2c1Cc1ccccc1C2,T/C,"endpoint: median tumor weight (est.), dose: 50.0 mg/kg/injection, schedule: Q07DX002 (ip), vehicle: distilled water + Tween-80, higher = larger tumour",86 % of control
same,T/C,"endpoint: median tumor weight (est.), dose: 100.0 mg/kg/injection, schedule: Q07DX002 (ip), vehicle: distilled water + Tween-80, higher = larger tumour",81 % of control
same,T/C,"endpoint: median tumor weight (est.), dose: 200.0 mg/kg/injection, schedule: Q07DX002 (ip), vehicle: distilled water + Tween-80, higher = larger tumour",65 % of control
CC(Cc1ccc(O)c(O)c1)C(C)Cc1ccc(O)c(O)c1 (centres undefined),T/C,[3],100 % of control
same,T/C,[5],83 % of control
same,T/C,[7],94 % of control
same,T/C,"endpoint: median tumor weight (est.), dose: 800.0 mg/kg/injection, schedule: Q07DX002 (ip), vehicle: saline, higher = larger tumour",90 % of control
C1CC[N-]CC1.C1CC[N-]CC1.C1CC[N-]CC1.[Cl][Rh]([Cl])[Cl],T/C,[3],105 % of control
same,T/C,[7],120 % of control and 124 % of control
same,T/C,[6],92 % of control
COc1cccc2c1C(=O)c1c(O)c3c(c(O)c1C2=O)CC(O)(C(=O)CO)CC3OC1CC(N)C(O)C(C)O1 (centres undefined),T/C,"endpoint: median survival time, dose: 41.0 mg/kg/injection, schedule: Q07DX002 (iv), vehicle: saline, higher = longer survival",93 % of control
same,T/C,"endpoint: median survival time, dose: 64.0 mg/kg/injection, schedule: Q07DX002 (iv), vehicle: saline, higher = longer survival",104 % of control
same,T/C,"endpoint: median survival time, dose: 100.0 mg/kg/injection, schedule: Q07DX002 (iv), vehicle: saline, higher = longer survival",122 % of control
same,T/C,"endpoint: median survival time, dose: 155.0 mg/kg/injection, schedule: Q07DX002 (iv), vehicle: saline, higher = longer survival",124 % of control
same,T/C,"endpoint: median tumor weight (est.), dose: 6.25 mg/kg/injection, schedule: Q07DX002 (ip), vehicle: water, higher = larger tumour",110 % of control
same,T/C,"endpoint: median tumor weight (est.), dose: 12.5 mg/kg/injection, schedule: Q07DX002 (ip), vehicle: water, higher = larger tumour",100 % of control
same,T/C,"endpoint: median tumor weight (est.), dose: 20.25 mg/kg/injection, schedule: Q07DX002 (ip), vehicle: saline, higher = larger tumour",51 % of control
same,T/C,[3],81 % of control and 86 % of control
same,T/C,"endpoint: median tumor weight (est.), dose: 25.0 mg/kg/injection, schedule: Q07DX002 (ip), vehicle: water, higher = larger tumour",100 % of control
same,T/C,"endpoint: median tumor weight (est.), dose: 40.5 mg/kg/injection, schedule: Q07DX002 (ip), vehicle: saline, higher = larger tumour",123 % of control
same,T/C,"endpoint: median tumor weight (est.), dose: 81.0 mg/kg/injection, schedule: Q07DX002 (ip), vehicle: saline, higher = larger tumour",52 % of control
same,T/C,"endpoint: median tumor weight (est.), dose: 81.0 mg/kg/injection, schedule: Q07DX002 (ip), vehicle: water, higher = larger tumour",56 % of control
same,T/C,"endpoint: median tumor weight (est.), dose: 100.0 mg/kg/injection, schedule: Q07DX002 (ip), vehicle: water, higher = larger tumour",83 % of control
same,T/C,"endpoint: median tumor weight (est.), dose: 162.0 mg/kg/injection, schedule: Q07DX002 (ip), vehicle: saline, higher = larger tumour",44 % of control
same,T/C,[6],19 % of control
same,T/C,"endpoint: median tumor weight (est.), dose: 200.0 mg/kg/injection, schedule: Q07DX002 (ip), vehicle: water, higher = larger tumour",53 % of control
same,T/C,"endpoint: median tumor weight (est.), dose: 324.0 mg/kg/injection, schedule: Q07DX002 (ip), vehicle: saline, higher = larger tumour",14 % of control
NC(C(=O)O)c1ccc(CBr)cc1 (centres undefined),T/C,[1],151 % of control
same,T/C,[2],106 % of control
same,T/C,[4],182 % of control
CCN(CC)CCOCc1cccc2c(=O)cc(-c3ccccc3)oc12,T/C,"endpoint: median tumor weight (est.), dose: 50.0 mg/kg/injection, schedule: Q07DX002 (ip), vehicle: Klucel (hydroxypropylcellulose) (HPC), higher = larger tumour",66 % of control
same,T/C,"endpoint: median tumor weight (est.), dose: 100.0 mg/kg/injection, schedule: Q07DX002 (ip), vehicle: Klucel (hydroxypropylcellulose) (HPC), higher = larger tumour",57 % of control
Clc1ccc(C(c2ccccc2Cl)C(Cl)Cl)cc1 (centres undefined),T/C,"endpoint: median tumor weight (est.), dose: 25.0 mg/kg/injection, schedule: Q07DX003 (ip), vehicle: saline with Tween-80, higher = larger tumour",39 % of control
same,T/C,"endpoint: median tumor weight (est.), dose: 50.0 mg/kg/injection, schedule: Q07DX003 (ip), vehicle: saline with Tween-80, higher = larger tumour",59 % of control
same,T/C,"endpoint: median tumor weight (est.), dose: 100.0 mg/kg/injection, schedule: Q07DX003 (ip), vehicle: saline with Tween-80, higher = larger tumour",80 % of control
same,T/C,"endpoint: median tumor weight (est.), dose: 200.0 mg/kg/injection, schedule: Q07DX003 (ip), vehicle: saline with Tween-80, higher = larger tumour",63 % of control
same,T/C,"endpoint: median tumor weight (est.), dose: 400.0 mg/kg/injection, schedule: Q07DX003 (ip), vehicle: saline with Tween-80, higher = larger tumour",95 % of control
